Laboratory results published in ChEMBL document CHEMBL3351759, “Synthesis and antitumor activity of novel 3-oxo-23-hydroxybetulinic acid derivatives” (Eur J Med Chem, 2014).

Columns and labels:
[1] = Antiproliferative activity against human SF763 cells after 72 hrs MTT assay; format: functional, cell-based; settings: SF763, 72 h
Mus musculus [2] = assay: Toxicity in […] H22 cells transplanted ICR mouse assessed as mouse survival at 30 mg/kg, ip administered 7 days post tumor transplantation; format: organism-based; parameters: dose 30 mg/kg, route intraperitoneal; settings: in vivo, 168 h
B16 [3] = assay: Antitumor activity against mouse B16 cells transplanted in ICR mouse assessed as tumor growth inhibition at 30 mg/kg, ip administered 7 days post tumor transplantation; format: functional; settings: 168 h, route intraperitoneal
Mus musculus [4] = assay: Toxicity in […] H22 cells transplanted ICR mouse assessed as mouse body weight at 30 mg/kg, ip administered 7 days post tumor transplantation (reference value: 18.4 to 18.9g); format: organism-based; parameters: dose 30 mg/kg, route intraperitoneal; settings: in vivo, 168 h
H22 [5] = assay: Antitumor activity against […] H22 cells transplanted in ICR mouse assessed as tumor growth inhibition at 30 mg/kg, ip administered 7 days post tumor transplantation; format: functional; settings: 168 h, route intraperitoneal
[6] = Antiproliferative activity against human Bel7402 cells after 72 hrs MTT assay; format: functional, cell-based; settings: Bel-7402, 72 h
B16 [7] = assay: Antiproliferative activity against mouse B16 cells after 72 hrs MTT assay; format: functional, cell-based; settings: B16, 72 h
HeLa = assay: Antiproliferative activity against human HeLa cells after 72 hrs MTT assay; format: functional, cell-based
[8] = Antiproliferative activity against human HL60 cells after 72 hrs MTT assay; format: functional, cell-based; settings: HL-60, 72 h
Mus musculus [9] = assay: Toxicity in mouse […] cells transplanted ICR mouse assessed as mouse survival at 30 mg/kg, ip administered 7 days post tumor transplantation; format: organism-based; parameters: dose 30 mg/kg, route intraperitoneal; settings: in vivo, 168 h
Mus musculus [10] = assay: Toxicity in mouse […] cells transplanted ICR mouse assessed as mouse body weight at 30 mg/kg, iv administered 7 days post tumor transplantation (reference value: 18.3 to 18.6g); format: organism-based; parameters: dose 30 mg/kg, route intravenous; settings: in vivo, 168 h
H22 [11] = assay: Antitumor activity against human H22 cells transplanted in ICR mouse assessed as tumor growth inhibition at 30 mg/kg, iv administered 7 days post tumor transplantation; settings: 168 h, read-out: INH
B16 [12] = assay: Antitumor activity against mouse B16 cells transplanted in ICR mouse assessed as tumor growth inhibition at 30 mg/kg, iv administered 7 days post tumor transplantation; format: functional; settings: B16, 168 h
Mus musculus [13] = assay: Toxicity in mouse […] cells transplanted ICR mouse assessed as mouse survival at 30 mg/kg, iv administered 7 days post tumor transplantation; format: organism-based; parameters: dose 30 mg/kg, route intravenous; settings: in vivo, 168 h
Mus musculus [14] = assay: Toxicity in mouse B6 cells transplanted ICR mouse assessed as mouse body weight at 30 mg/kg, iv administered 7 days post tumor transplantation (reference value: 18.2 +/- 0.5g); format: organism-based; parameters: dose 30 mg/kg, route intravenous; settings: in vivo, 168 h

| Structure (SMILES) | IC50 [1] [µM] | Activity (Mus musculus [2]) | inhibition in vivo at 30 mg/kg (B16 [3]) [%] | Activity (Mus musculus [4]) [g] | inhibition in vivo at 30 mg/kg (H22 [5]) [%] | IC50 [6] [µM] | IC50 (B16 [7]) [µM] | IC50 (HeLa) [µM] | IC50 [8] [µM] | Activity (Mus musculus [9]) | Activity (Mus musculus [10]) [g] | inhibition in vivo at 30 mg/kg (H22 [11]) [%] | inhibition in vivo at 30 mg/kg (B16 [12]) [%] | Activity (Mus musculus [13]) | Activity (Mus musculus [14]) [g] |
| --- | --- | --- | --- | --- | --- | --- | --- | --- | --- | --- | --- | --- | --- | --- | --- |
| C=C(C)[C@@H]1CC[C@]2(C(=O)O)CC[C@]3(C)[C@H](CC[C@@H]4[C@@]5(C)CC[C@H](O)[C@@](C)(CO)[C@@H]5CC[C@]43C)[C@@H]12 | 43.4 | Non-toxic | 32.4 | 26.1 | 27.8 | 39.7 | 29.9 | 52.4 | 45.1 | Non-toxic | 26.7 |  |  |  |  |
| C=C(C)[C@@H]1CC[C@]2(C(=O)NCCN)CC[C@]3(C)[C@H](CC[C@@H]4[C@@]5(C)CCC(=O)[C@@](C)(COC(C)=O)[C@@H]5CC[C@]43C)[C@@H]12 | 6.23 | Non-toxic | 62.7 | 27.2 | 51.8 | 7.22 | 5.58 | 10.6 | 8.64 | Non-toxic | 26.9 |  |  |  |  |
| C=C(C)[C@@H]1CC[C@]2(C(=O)O)CC[C@]3(C)[C@H](CC[C@@H]4[C@@]5(C)CCC(=O)[C@@](C)(CO)[C@@H]5CC[C@]43C)[C@@H]12 | 29.3 | Non-toxic | 48.1 | 26.8 | 39.5 | 33.8 | 20.6 | 39.2 | 36.1 | Non-toxic | 27.3 |  |  |  |  |
| O=P1(N(CCCl)CCCl)NCCCO1 (configuration not stated) [CYCLOPHOSPHAMIDE ANHYDROUS] |  |  |  |  |  |  |  |  |  |  |  | 53.7 |  |  |  |
| O=c1[nH]cc(F)c(=O)[nH]1 [FLUOROURACIL] |  |  |  |  |  |  |  |  |  |  |  |  | 70.3 | Non-toxic | 26.2 |
